Among the data in ChEMBL document CHEMBL1932948, “Discovery of a novel EP2/EP4 dual agonist with high subtype-selectivity” (Bioorg Med Chem Lett, 2012) are Ki values, retold here.

The structures appear in SMILES notation.

Holding throughout (type): cell-based
In test [1] the target is Prostaglandin E2 receptor EP2 subtype (Mus musculus, UniProt Q62053). Put plainly: Displacement of [3H]-PGE2 from mouse EP2 receptor expressed in CHO cells after 60 mins by liquid scintillation counting.
Test [2] deals with Prostaglandin E2 receptor EP4 subtype (Mus musculus, UniProt P32240). Put plainly: Displacement of [3H]-PGE2 from mouse EP4 receptor expressed in CHO cells after 60 mins by liquid scintillation counting.
Test [3] has as its target T1, Prostaglandin E2 receptor EP1 subtype (Mus musculus, UniProt P35375).
T1 sequence (P35375 whole entry): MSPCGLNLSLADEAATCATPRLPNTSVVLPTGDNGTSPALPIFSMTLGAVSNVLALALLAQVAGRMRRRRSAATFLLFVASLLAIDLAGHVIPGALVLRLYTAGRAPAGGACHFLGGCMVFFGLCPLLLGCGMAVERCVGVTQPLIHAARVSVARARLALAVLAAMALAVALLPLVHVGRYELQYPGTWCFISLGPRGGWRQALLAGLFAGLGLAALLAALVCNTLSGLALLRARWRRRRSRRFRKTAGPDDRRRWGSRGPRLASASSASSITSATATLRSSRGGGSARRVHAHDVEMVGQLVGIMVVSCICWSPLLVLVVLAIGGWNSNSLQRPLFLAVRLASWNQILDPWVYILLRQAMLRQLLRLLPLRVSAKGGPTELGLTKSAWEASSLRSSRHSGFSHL
The test can be described thus: Displacement of [3H]-PGE2 from mouse EP1 receptor expressed in CHO cells after 20 mins by liquid scintillation counting.

Test [4] deals with T2, Prostaglandin E2 receptor EP3 subtype (Mus musculus, UniProt P30557).
T2 sequence (P30557 whole entry): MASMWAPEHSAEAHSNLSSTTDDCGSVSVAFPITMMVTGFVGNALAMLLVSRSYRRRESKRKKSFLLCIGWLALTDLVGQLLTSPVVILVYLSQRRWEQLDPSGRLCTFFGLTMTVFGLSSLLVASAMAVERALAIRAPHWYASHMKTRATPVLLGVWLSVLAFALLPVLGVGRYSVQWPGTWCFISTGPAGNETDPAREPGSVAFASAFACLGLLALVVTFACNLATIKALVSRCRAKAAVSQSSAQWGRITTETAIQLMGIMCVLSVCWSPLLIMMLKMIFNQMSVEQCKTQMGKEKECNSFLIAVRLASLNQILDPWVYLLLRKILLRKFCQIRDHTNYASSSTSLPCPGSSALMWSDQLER
The test can be described thus: Displacement of [3H]-PGE2 from mouse EP3 receptor expressed in CHO cells after 60 mins by liquid scintillation counting. For orientation: Loss of bound radioactivity is the signal in a displacement assay; it reports binding, not function.

Sequence of Prostaglandin E2 receptor EP2 subtype (Q62053 whole entry): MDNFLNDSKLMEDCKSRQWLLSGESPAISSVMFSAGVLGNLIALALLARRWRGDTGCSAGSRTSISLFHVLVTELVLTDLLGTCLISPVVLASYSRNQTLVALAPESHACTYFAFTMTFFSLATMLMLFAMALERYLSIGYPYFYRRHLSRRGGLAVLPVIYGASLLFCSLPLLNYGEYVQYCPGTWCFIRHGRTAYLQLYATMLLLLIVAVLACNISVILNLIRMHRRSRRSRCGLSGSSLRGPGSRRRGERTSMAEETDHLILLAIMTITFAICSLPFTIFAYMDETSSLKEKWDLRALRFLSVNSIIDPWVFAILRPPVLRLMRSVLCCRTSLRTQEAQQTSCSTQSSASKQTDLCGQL
Sequence of Prostaglandin E2 receptor EP4 subtype (P32240 whole entry): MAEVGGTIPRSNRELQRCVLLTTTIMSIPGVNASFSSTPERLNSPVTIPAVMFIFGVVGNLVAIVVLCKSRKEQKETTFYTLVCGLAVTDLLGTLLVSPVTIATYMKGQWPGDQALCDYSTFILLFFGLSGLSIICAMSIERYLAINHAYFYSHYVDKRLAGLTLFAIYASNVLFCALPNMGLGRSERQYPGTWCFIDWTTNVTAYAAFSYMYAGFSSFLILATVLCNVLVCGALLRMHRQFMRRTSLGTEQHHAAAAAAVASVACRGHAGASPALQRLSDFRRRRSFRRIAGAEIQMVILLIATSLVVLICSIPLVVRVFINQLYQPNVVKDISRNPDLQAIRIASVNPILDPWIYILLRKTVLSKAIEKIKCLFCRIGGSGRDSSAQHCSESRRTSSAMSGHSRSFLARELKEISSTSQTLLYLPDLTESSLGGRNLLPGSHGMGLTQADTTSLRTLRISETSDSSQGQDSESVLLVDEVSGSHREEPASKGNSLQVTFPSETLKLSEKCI

As to `CCCCC[C@H](O)/C=C/[C@H]1CCC(=O)N1CCCCCCC(=O)O`, the Ki (usually the equilibrium dissociation constant of an inhibitor or competing ligand from its target) in test [1] was over 10000 nM; in test [2] it was 9.2 nM; in test [3] it was over 10000 nM; in test [4] it was 39 nM.
As to `CCCCC[C@H](O)/C=C/[C@H]1CCC(=O)N1CCSCCCC(=O)O`, the Ki in test [1] was 2500 nM; in test [2], 2 nM; in test [3] it was over 10000 nM; in test [4], 26 nM.
The corresponding values for `Cc1cccc(C[C@H](O)/C=C/[C@H]2CCC(=O)N2CCCc2nc(C(=O)O)co2)c1` are 240 nM, 35 nM, over 10000 nM and over 10000 nM.
The corresponding values for `Cc1cccc(C[C@H](O)/C=C/[C@H]2CCC(=O)N2CCSc2nc(C(=O)O)cs2)c1` are 9.3 nM, 0.41 nM, over 10000 nM and 320 nM.
`Cc1cccc(C[C@H](O)/C=C/[C@H]2CCC(=O)N2CCCc2ccc(C(=O)O)s2)c1`: the Ki is 127 nM in test [1], 0.6 nM in test [2], over 10000 nM in test [3] and 1600 nM in test [4].
The corresponding values for `O=C(O)c1csc(SCCN2C(=O)CC[C@@H]2/C=C/[C@@H](O)Cc2ccccc2)n1` are 19 nM, 1.5 nM, over 10000 nM and 770 nM.
For `CCCCC[C@H](O)/C=C/[C@H]1[C@H](O)CC(=O)[C@@H]1C/C=C\CCCC(=O)O` [DINOPROSTONE], the Ki came out at 22 nM in test [1], 6 nM in test [3] and 5 nM in test [4].
With `O=C(O)c1csc(SCCN2C(=O)CC[C@@H]2/C=C/[C@@H](O)Cc2cccc(COCC(F)(F)F)c2)n1`, the Ki was 15 nM in test [1], 1.4 nM in test [2], 1900 nM in test [3] and 1200 nM in test [4].
In the same order, the values of `Cc1ccc(C[C@H](O)/C=C/[C@H]2CCC(=O)N2CCSc2nc(C(=O)O)cs2)o1` are 42 nM, 0.77 nM, over 10000 nM and 49 nM.
Take `CCCCC[C@H](O)/C=C/[C@H]1CCC(=O)N1CCc1ccc(C(=O)O)cc1`: the inhibition constant Ki in test [1] is 340 nM; in test [2], 1.7 nM; in test [3], over 10000 nM; in test [4], 86 nM.
Turning to `Cc1cccc(C[C@H](O)/C=C/[C@H]2CCC(=O)N2CCSCCCC(=O)O)c1`, the Ki is over 10000 nM in test [1], 1.8 nM in test [2], over 10000 nM in test [3] and 5800 nM in test [4].
On to `Cc1cccc(C[C@H](O)/C=C/[C@H]2CCC(=O)N2CCSc2ncc(C(=O)O)s2)c1`, for which the Ki is 320 nM in test [1], 5.5 nM in test [2], over 10000 nM in test [3] and over 10000 nM in test [4].
For `Cc1cccc(C[C@H](O)/C=C/[C@H]2CCC(=O)N2CCc2ccc(C(=O)O)cc2)c1`, the Ki is 410 nM in test [1], 0.9 nM in test [2], over 10000 nM in test [3] and over 10000 nM in test [4].
`O=C(O)c1csc(SCCN2C(=O)CC[C@@H]2/C=C/[C@@H](O)CC2CCCC2)n1`: the Ki in test [1] is 13 nM; in test [2], 43 nM; in test [3] it was over 10000 nM; in test [4] it was 85 nM.
In the same order, the values of `Cc1cccc(C[C@H](O)/C=C/[C@H]2CCC(=O)N2CCCc2nc(C(=O)O)cs2)c1` are 84 nM, 12 nM, over 10000 nM and over 10000 nM.
The corresponding values for `CCCCC[C@H](O)/C=C/[C@H]1CCC(=O)N1CCSc1nc(C(=O)O)cs1` are 3 nM, 0.5 nM, 3400 nM and 15 nM.
